Laboratory results reported in article PMC10012172, “Chimeric Peptidomimetic Antibiotic Efficiently Neutralizes Lipopolysaccharides (LPS) and Bacteria-Induced Activation of RAW Macrophages” (ACS Infectious Diseases, 2023).

System: RAW264.7 macrophages stimulated with treated P. aeruginosa
Test: Silent killing: stimulation of macrophages with nonviable bacteria (TNF-α ELISA)
Type: cell-based
Conditions: RAW264.7 2 h
Procedure: Figure 7 (A) Determination of macrophage activation in response to viable and nonviable bacteria. P. aeruginosa was treated with gentamicin, heat treatment, CATH-2 (control), CPA, murepavadin, MHM, PMB, or PMBN (20 μM of each) and subsequently added to RAW264.7 macrophages. Production of TNF-α was measured using ELISA after 2 h of treatment. (B) Viability of P. aeruginosa after treatment was checked by plating on TSA plates. Data is plotted as the mean ± SEM of three independent experiments. Significant differences were determined by ordinary one-way ANOVA (Tukey’s multiple comparison test).
RAW264.7 cells were seeded (7.5 × 10^4 cells/well) as described above. P. aeruginosa (diluted to 1 × 10^6 CFU/mL in DMEM) was treated separately with heat (1 h at 90 °C), 1 mg/mL gentamicin (1 h at 37 °C), 20 μM CPA (1 h at 37 °C), 20 μM PMB (1 h at 37 °C), 20 μM murepavadin (1 h at 37 °C), 20 μM MHM (1 h at 37 °C), 20 μM CATH-2 (1 h at 37 °C), and DMEM only (untreated sample) (1 h at 4 °C). After treatment, the bacteria were added to the RAW264.7 cells for 2 h of incubation at 37 °C. After that, TNF-α production was determined in the supernatant by ELISA.

Compound | macrophage activation (TNF-α) by peptide-treated P. aeruginosa compared to viable untreated bacteria (bacteria 1 × 10^6 CFU/mL treated with 20 μM peptide 1 h at 37 °C, three independent experiments) | macrophage activation (TNF-α) by gentamicin-killed P. aeruginosa compared to viable untreated bacteria (bacteria treated with 1 mg/mL gentamicin 1 h at 37 °C)
chicken cathelicidin 2 (LVQRGRFGRFLRKIRRFRPKVTITIQGSARFG; Cathelicidin-2; UniProt Q2IAL7 123-154, looked up) [CATH-2, chicken cathelicidin 2, control peptide for which silent killing was originally described] | significantly reduced immune response | 
CNC(C)C1CCC(N)C(OC2C(N)CC(N)C(OC3OCC(C)(O)C(NC)C3O)C2O)O1 (centres unmarked) [Gentamicin] |  | almost same level as viable untreated bacteria
